8 compounds from ChEMBL document CHEMBL1201862, “PubChem BioAssay data set” (2004) can be followed below.

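Step 1: Grow cells in 96-well plates. Step 2: Expose to compound for 48 hours at 5 concentrations. Step 3: Interpolate endpoints linearly; if unreached, use highest concentration. GI50 is the concentration that inhibits growth by half.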 The source made the active and inactive calls. No stated cut-off is given here; in the data, active = GI50 up to about 1.1 µM and inactive = higher. Where only a bound is given, the exact number is not on record here.

Test systems include HOP-18; RXF 631; XF498; SNB-78; LXFL 529; DMS-273; DLD-1; KM-20L2; DMS-114.
Experiment in all cases: NCI-60 cell line screen, 48 h

Regarding `CC(=O)OC1(C(C)=O)CC2(c3ccccc3)OC1(c1ccccc1)c1ccccc12` (configuration not stated), the GI50 in the experiment with HOP-18 is 42.5 µM (inactive); in the experiment on RXF 631, 16.9 µM (inactive); in the experiment on XF498, 5.51 µM (inactive); in the experiment with SNB-78, 31.7 µM (inactive); in the experiment with LXFL 529 it was 7.53 µM (inactive); in the experiment with DMS-273 it was 5.08 µM (inactive). In addition, the GI50 with DLD-1 is 8.34 µM (inactive); with KM-20L2 it was 8.59 µM (inactive); in the experiment with DMS-114 it was 3.21 µM (inactive).
Consider `CC(C)c1cccc(C(C)C)c1/N=C(/N)C#N`, for which the GI50 in the experiment with HOP-18 is > 86.1 µM (inactive); in the experiment with RXF 631, > 100 µM (inactive); with XF498, > 100 µM (inactive); with SNB-78, 99.1 µM (inactive); in the experiment with LXFL 529, > 67.1 µM (inactive); in the experiment on DMS-273, > 43 µM (inactive). The GI50 in the experiment with DLD-1 was 37 µM (inactive); with KM-20L2, > 100 µM (inactive); in the experiment with DMS-114, 29.9 µM (inactive).
For the compound `O=C(O)[C@@H](NS(=O)(=O)c1ccc2ccccc2c1)c1ccccc1`, the GI50 with HOP-18 was > 100 µM (inactive); in the experiment with RXF 631, > 100 µM (inactive); in the experiment on XF498 it was 75.5 µM (inactive); in the experiment with LXFL 529, > 100 µM (inactive); in the experiment on DMS-273, > 100 µM (inactive); in the experiment on DLD-1, > 100 µM (inactive). Further, the GI50 in the experiment with KM-20L2 is > 100 µM (inactive).
On to `C=CCNC(=O)NCCCC(NC(C)=O)C(=O)NCc1ccccc1` (configuration not stated), for which the GI50 in the experiment on HOP-18, with RXF 631, in the experiment on XF498, in the experiment with LXFL 529, in the experiment with DMS-273 and in the experiment with KM-20L2 was > 100 µM (inactive) each time.
On to `CCOC(=O)c1sc2c(sc(=O)n2-c2ccccc2)c1O`, for which the GI50 with HOP-18 is > 100 µM (inactive); with RXF 631, 58.6 µM (inactive); with XF498 it was > 100 µM (inactive); in the experiment on SNB-78 it was > 100 µM (inactive); with LXFL 529, > 100 µM (inactive); with DMS-273, 29.4 µM (inactive). Also, the GI50 in the experiment with DLD-1 was 46.3 µM (inactive); with KM-20L2, > 100 µM (inactive); with DMS-114, 98.9 µM (inactive).
As to `O=C1/C(=C(\Nc2ccccc2)c2ccccc2)C=NN1c1ccccc1`, the GI50 in the experiment with HOP-18 was < 0.01 µM (active); in the experiment on RXF 631, > 100 µM (inactive); in the experiment with XF498, > 100 µM (inactive); in the experiment with SNB-78, > 100 µM (inactive); in the experiment on LXFL 529, > 100 µM (inactive); with DMS-273 it was 61.8 µM (inactive). In addition, the GI50 with DLD-1 is > 100 µM (inactive); with KM-20L2, > 100 µM (inactive); in the experiment on DMS-114, 50.6 µM (inactive).
With `CNC(=O)OCc1nc(SC2CCCCO2)n(C)c1COC(=O)NC` (configuration not stated), the GI50 in the experiment with HOP-18, with RXF 631, with XF498, in the experiment with SNB-78, in the experiment with LXFL 529 and with DMS-273 was > 100 µM (inactive) in each case. In addition, the GI50 in the experiment with DLD-1, in the experiment on KM-20L2 and in the experiment on DMS-114 was > 100 µM (inactive) throughout.
With `Nc1c(-c2ccc(Cl)cc2Cl)[n+]([O-])c2ccccc2[n+]1[O-]`, the GI50 in the experiment on HOP-18 is 76 µM (inactive); in the experiment with RXF 631, > 100 µM (inactive); with XF498 it was > 100 µM (inactive); with SNB-78 it was > 100 µM (inactive); in the experiment with LXFL 529, > 100 µM (inactive); with DMS-273, > 100 µM (inactive). Besides, the GI50 with DLD-1, in the experiment with KM-20L2 and with DMS-114 was > 100 µM (inactive) in each case.
